“And” between values parts separate entries of the source, which are not always exact repeats. Equal values may be shown once.
Tested on: 349418-098-R-PDC complex spheroid viability
Experiment: Anticancer human tumor 349418-098-R-PDC patient-derived lung adenocarcinoma cell line growth inhibition
Conditions: for viability, T/C: stronger effect = lower value
From the text: Multicellular complex tumor spheroid response to LSD1 Inhibitor Iadademstat in combination with a variety of drugs and investigational agents in selected tumor cell lines
The current study was undertaken to assess response to LSD1 inhibitors in combination with standard-of-care drugs and investigational agents in solid tumor complex spheroid models as well as in the K-562 leukemia. Complex spheroids include a stromal component modeled by human endothelial cells (HUVEC) and fibroblasts modeled by human mesenchymal stem cells (MSCs). The concentration ranges selected for each drug and investigational agent were based upon clinically achievable concentrations if the clinical Cmax of the agent was known.
Compounds. The drugs and investigational agents used in this study are listed on Table 1. All of the agents used, including staurosporine (NSC755774) and gemcitabine (NSC613327), were obtained from the Developmental Therapeutics Program, NCI. FDA-approved anticancer drugs are available from the NCI at http://dtp.nci.nih.gov/branches/dscb/oncology_drugset_explanation.html. Drugs and investigational agents were >95% pure by proton nuclear magnetic resonance (NMR) and liquid chromatography/mass spectrometry (LC/MS). Stock solutions were prepared at 400x in DMSO, stored at -70 degrees C, and diluted in fresh medium prior to their use. The final concentration of DMSO in cell culture wells never exceeded 0.25% (v/v). The FDA-approved anticancer drug set is available from the Developmental Therapeutics Program at https://dtp.cancer.gov/organization/dscb/obtaining/available_plates.htm. All drugs and investigational agents were tested over a range starting from a high concentration at or near the clinical Cmax and decreasing in half-log increments. If the clinical Cmax for an agent had not been determined, the highest concentration tested was 10 microM.
Cell Lines. The patient-derived cancer cell (PDC) lines: 292921-168-R-J2-PDC, K24384-001-R-PDC, and 521955-158-R2-J5-PDC pancreatic carcinomas, 556581-035-R-J1 ovarian carcinoma, 324938-238-R-J1-PDC, 855422-203-R-J1-PDC and 883617-216-R-J1-PDC urothelial bladder carcinomas, 743489-274-T-PDC renal cell carcinoma, 138582-R-J1 Merkel cell tumor, K60290-347-R-J1 and K57222-313-R-J1-PDC glioblastomas, 653999-131-R-J2-PDC, LG0703-F948-PDC, and 349418-098-R-PDC non-small cell lung carcinomas, 885512-296-R-J2-PDC, 171881-019-R-J1-PDC breast carcinomas and 186277-243-T-J2-PDC and 233499-124-R-J2-PDC colon carcinomas were obtained from the NCI Patient-Derived Models Repository (PDMR, https://pdmr.cancer.gov). The established cell lines NCI/ADR-RES (RRID:CVCL_14520 and OVCAR-5 (RRID:CVCL_1628) ovarian carcinomas, 786-O (RRID:CVCL_1051) and A498 (RRID:CVCL_A498) renal cell carcinoma, NCI-H211 (ATCC, cat. CRL-5824; RRID:CVCL_1529), NCI-H196 (ATCC, cat. CRL-5823, RRID:CVCL_1509), SW 1271 (ATCC, cat. CRL-2177, RRID:CVCL_1716) and NCI-H1876 (ATCC, cat. CRL-5902, RRID:CVCL_1503) small cell lung carcinomas, MDA-MB-231 (RRID:CVCL_0062) and MDA-MB-468 (RRID:CVCL_0419)breast carcinomas (10-12). Pooled donor human umbilical vein endothelial cells (HUVEC, Lonza, cat. CC-2519) and human mesenchymal stem cells (hMSC, Lonza, cat. PT-2501) were purchased from Lonza (Walkersville, MD).
Cell Culture. All cells were maintained in an incubator at 37 degrees C and 5% CO2 with 95% humidity. The PDC lines were cultured according to standard operating procedures established by the NCI PDMR (https://pdmr.cancer.gov). Briefly all PDCs were thawed and cultured in Matrigel-coated flasks prepared with a working solution of 1X Ham's F-12 nutrient mix, without supplementation (Invitrogen, Waltham, MA, cat. 11765054), 100 U/mL penicillin-streptomycin (Invitrogen, cat. 15140122), and 2.5% Matrigel (Corning Inc., Corning, NY, cat. 354248) for the first three passages. […]
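Also: spheroids exposed to agents for seven days before readout.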
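For viability, T/C in this document: 100% = DMSO vehicle control wells.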

For CC1COCCN1c1cc(-c2ccnn2C)c2ccnc(-c3ccn[nH]3)c2n1 (configuration not stated), the viability, T/C (compound 0.00316 µM) was 104% and 25.4%, the viability, T/C (compound 0.01 µM) was 61.4% and 14.9% and the viability, T/C (compound 0.0316 µM) was 14.5% and 8.01%. The viability, T/C (compound 0.1 µM) was 8.8% and 6.27%, the viability, T/C (compound 0.316 µM) was 7.72% and 5.55% and the viability, T/C (compound 1 µM) was 5.78% and 4.24%. For the same compound, the IC50 (curve of compound) was 13.2 nM and < 3.16 nM.

CC[C@@]1(O)C(=O)OCc2c1cc1n(c2=O)Cc2cc3c(CN(C)C)c(O)ccc3nc2-1 + NC1CCC(NC2CC2c2ccccc2)CC1 gave an IC50 (curve of first compound, second compound 0.1 µM) of 2.04 nM, an IC50 (curve of first compound, second compound 0.316 µM) of 1.94 nM and an IC50 (curve of first compound, second compound 1 µM) of 2.12 nM. It also gave an IC50 (curve of first compound, second compound 3.16 µM) of 2.23 nM, an IC50 (curve of first compound, second compound 10 µM) of 1.87 nM and a viability, T/C (second compound 0.1 µM, first compound 0.000316 µM) of 98.8%. The viability, T/C (second compound 0.1 µM, first compound 0.001 µM) was 86.5%, the viability, T/C (second compound 0.1 µM, first compound 0.00316 µM) was 27.2% and the viability, T/C (second compound 0.1 µM, first compound 0.01 µM) was 8.74%. The viability, T/C (second compound 0.1 µM, first compound 0.0316 µM) was 4.98%, the viability, T/C (second compound 0.1 µM, first compound 0.1 µM) was 3.65% and the viability, T/C (second compound 0.316 µM, first compound 0.000316 µM) was 113%. The viability, T/C (second compound 0.316 µM, first compound 0.001 µM) was 78.6%, the viability, T/C (second compound 0.316 µM, first compound 0.00316 µM) was 28.8% and the viability, T/C (second compound 0.316 µM, first compound 0.01 µM) was 8.08%. It also gave a viability, T/C (second compound 0.316 µM, first compound 0.0316 µM) of 5.09%, a viability, T/C (second compound 0.316 µM, first compound 0.1 µM) of 3.1% and a viability, T/C (second compound 1 µM, first compound 0.000316 µM) of 98.9%. For the same compound, the viability, T/C (second compound 1 µM, first compound 0.001 µM) was 84.8%, the viability, T/C (second compound 1 µM, first compound 0.00316 µM) was 31.4% and the viability, T/C (second compound 1 µM, first compound 0.01 µM) was 8.25%. For the same compound, the viability, T/C (second compound 1 µM, first compound 0.0316 µM) was 5.11%, the viability, T/C (second compound 1 µM, first compound 0.1 µM) was 2.94% and the viability, T/C (second compound 3.16 µM, first compound 0.000316 µM) was 91.6%. It also gave a viability, T/C (second compound 3.16 µM, first compound 0.001 µM) of 83.5%, a viability, T/C (second compound 3.16 µM, first compound 0.00316 µM) of 35.2% and a viability, T/C (second compound 3.16 µM, first compound 0.01 µM) of 9.52%. For the same compound, the viability, T/C (second compound 3.16 µM, first compound 0.0316 µM) was 5.25%, the viability, T/C (second compound 3.16 µM, first compound 0.1 µM) was 3.35% and the viability, T/C (second compound 10 µM, first compound 0.000316 µM) was 95%. The viability, T/C (second compound 10 µM, first compound 0.001 µM) was 71%, the viability, T/C (second compound 10 µM, first compound 0.00316 µM) was 31.8% and the viability, T/C (second compound 10 µM, first compound 0.01 µM) was 12%. It also gave a viability, T/C (second compound 10 µM, first compound 0.0316 µM) of 4.67% and a viability, T/C (second compound 10 µM, first compound 0.1 µM) of 3.15%.

From PubChem BioAssay AID1918936 (Molecular Pharmacology Branch, DTP, NCI, 2023)
